Experimental findings from patent US20240199618A1, “NOVEL N-ACYL-[3-SUBSTITUTED]-[8-SUBSTITUTED]-5,6-DIHYDRO-[1,2,4]TRIAZOLO[4,3-a]PYRAZINES AS SELECTIVE NK-3 RECEPTOR ANTAGONISTS, PHARMACEUTICAL COMPOSITION, METHODS FOR USE IN NK-3 RECEPTOR-MEDIATED DISORDERS” (Ogeda SA, priority 2013, published 2024) are described below.

The target of data set [1] is T1, human NK-3 receptor (Homo sapiens (Human), UniProt P29371). Briefly: 3H-SB222200 binding competition assay with human NK-3 receptor. Here is the method:
The affinity of compounds of the invention for the human NK-3 receptor was determined by measuring the ability of compounds of the invention to competitively and reversibly displace a well-characterized NK-3 radioligand in a concentration-dependent manner.
^3H-SB222200 Binding Competition Assay with Human NK-3 Receptor
Membranes were prepared from Chinese hamster ovary recombinant cells stably expressing the human NK-3 receptor. The membranes were incubated with 5 nM ^3H-SB222200 (ARC) in a HEPES 25 mM/NaCl 0.1M/CaCl2 1 mM/MgCl2 5 mM/BSA 0.5%/Saponin 10 μg/ml buffer at pH 7.4 and various concentrations of compounds of the invention. The amount of ^3H-SB222200 bound to the receptor was determined after filtration by the quantification of membrane associated radioactivity using the TopCount-NXT reader (Packard).

The target in data set [2] is human NK-2 receptor (Homo sapiens (Human), UniProt P21452). Briefly: Selectivity assay: [125I]-Neurokinin A binding, human NK-2 receptor. As to conditions: 0.1 nM [125I]-Neurokinin A, CHO membranes; read-out: hNK-2 (Ki). The protocol:
The affinity of compounds of the invention for the NK-2 receptor was evaluated in CHO recombinant cells which express the human NK-2 receptor. Membrane suspensions were prepared from these cells. […] Binding assays were performed in a 25 mM HEPES/1 mM CaCl2)/5 mM MgCl2/0.5% BSA/10 μg/ml saponin, at pH 7.4. […] The radioactivity retained on the filters was measured by using the TopCount-NXT reader (Packard).

In data set [3] the target is T1, human NK-3 receptor. Put plainly: Aequorin functional assay with human NK-3 receptor (antagonist testing vs NKA). The class given is cell-based. The settings on record: CHO cells, NKA at EC80 (3 nM); read-out: Functional assay: Aequorin assay with human NK-3 receptor hNK-3-AEQ (antagonist IC50). Here is the method: Aequorin Assay with Human NK-3 Receptor
Changes in intracellular calcium levels are a recognized indicator of G protein-coupled receptor activity. The efficacy of compounds of the invention to inhibit NKA-mediated NK-3 receptor activation was assessed by an in vitro Aequorin functional assay. Chinese Hamster Ovary recombinant cells expressing the human NK-3 receptor and a construct that encodes the photoprotein apoaequorin were used for this assay. In the presence of the cofactor coelenterazine, apoaequorin emits a measurable luminescence that is proportional to the amount of intracellular (cytoplasmic) free calcium.
The antagonist activity of compounds of the invention is measured following pre-incubation (3 minutes) of the compound (at various concentrations) with the cells, followed by addition of the reference agonist (NKA) at a final concentration equivalent to the EC80 (3 nM) and recording of emitted light (FDSS 6000 Hamamatsu) over the subsequent 90-second period. The intensity of the emitted light is integrated using the reader software. Compound antagonist activity is measured based on the concentration-dependent inhibition of the luminescence response to the addition of Neurokinin A.

In data set [4] the target is human NK-1 receptor (Homo sapiens (Human), UniProt P25103). Briefly: Selectivity assay: [3H] substance P binding, human NK-1 receptor. As to conditions: 2 nM [3H] substance P, CHO membranes; read-out: hNK-1 (Ki). The protocol:
Selectivity of the compounds of the invention was determined over the other human NK receptors, namely NK-1 and NK-2 receptors.
The affinity of compounds of the invention for the NK-1 receptor was evaluated in CHO recombinant cells which express the human NK-1 receptor. Membrane suspensions were prepared from these cells. The following radioligand: [^3H] substance P (PerkinElmer Cat #NET111520) was used in this assay. Binding assays were performed in a 50 mM Tris/5 mM MnCl2/150 mM NaCl/0.1% BSA at pH 7.4. Binding assays consisted of 25 μl of membrane suspension (approximately 5 μg of protein/well in a 96 well plate), 50 μl of compound or reference ligand (Substance P) at increasing concentrations (diluted in assay buffer) and 2 nM [^3H] substance P. The plate was incubated 60 min at 25° C. in a water bath and then filtered over GF/C filters (Perkin Elmer, 6005174, presoaked in 0.5% PEI for 2 h at room temperature) with a Filtration unit (Perkin Elmer). The radioactivity retained on the filters was measured by using the TopCount-NXT reader (Packard).

Data set [5] deals with plasma protein. Briefly: Determination of plasma protein binding (equilibrium dialysis, RED). As to conditions: 4 hours at 37° C. Type of data set: in vitro ADME. The text has this: Determination of plasma protein binding The pharmacokinetic and pharmacodynamic properties of chemicals/drugs are largely a function of the reversible binding of chemicals to plasma or serum proteins. […] Consequently, the extent of the plasma protein binding (PPB) of a compound influences its action as well as its distribution and elimination.
The determination of plasma protein binding (PPB) of a compound is enabled by equilibrium dialysis, an accepted and standard method for reliable estimation of the non-bound drug fraction in plasma. RED (Rapid Equilibrium Dialysis) device insert is made of two side-by-side chambers separated by an O-ring-sealed vertical cylinder of dialysis membrane (MWCO ˜8,000). […] After 4 hours incubation at 37° C. under shaking, an aliquot is removed from each chamber and analyzed by a LC-MS/MS procedure enables the determination of both free and bound drug.
The “free fraction” may be calculated as 100%−% rPPB (i.e. the complementary percentage of that disclosed in Table 4, corresponding to the drug concentration that is unbound and therefore available to engage biological target and elicit pharmacological activity).

[6] abbreviates: Table 2, 5 nM 3H-SB222200, CHO membranes, read-out: Competitive binding assay with human NK-3 receptor hNK-3 (Ki).
[7] abbreviates: Table 3 (selectivity table), read-out: hNK-3 (Ki).

SMILES strings stand for the structures. pIC50, pKi: −log10 of the molar value. Where two headings read alike, the source gives them in different places.

In general, pKi refers to the negative decadic logarithm of the Ki, by convention in mol/L. By pIC50 is commonly meant −log10 of the IC50, conventionally taken in molar units.

Chain of human NK-1 receptor (P25103 whole entry): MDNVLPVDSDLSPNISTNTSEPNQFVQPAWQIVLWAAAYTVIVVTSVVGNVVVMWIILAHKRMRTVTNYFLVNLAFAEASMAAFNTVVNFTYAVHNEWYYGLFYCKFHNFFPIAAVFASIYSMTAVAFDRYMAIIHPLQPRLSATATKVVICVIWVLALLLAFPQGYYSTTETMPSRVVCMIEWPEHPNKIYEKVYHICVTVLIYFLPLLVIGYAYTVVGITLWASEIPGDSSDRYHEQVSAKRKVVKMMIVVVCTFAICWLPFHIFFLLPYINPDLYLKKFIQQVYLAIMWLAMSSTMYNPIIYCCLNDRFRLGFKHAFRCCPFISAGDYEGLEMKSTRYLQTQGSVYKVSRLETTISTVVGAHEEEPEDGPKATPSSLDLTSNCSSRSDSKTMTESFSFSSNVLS
T1 sequence (P29371 whole entry): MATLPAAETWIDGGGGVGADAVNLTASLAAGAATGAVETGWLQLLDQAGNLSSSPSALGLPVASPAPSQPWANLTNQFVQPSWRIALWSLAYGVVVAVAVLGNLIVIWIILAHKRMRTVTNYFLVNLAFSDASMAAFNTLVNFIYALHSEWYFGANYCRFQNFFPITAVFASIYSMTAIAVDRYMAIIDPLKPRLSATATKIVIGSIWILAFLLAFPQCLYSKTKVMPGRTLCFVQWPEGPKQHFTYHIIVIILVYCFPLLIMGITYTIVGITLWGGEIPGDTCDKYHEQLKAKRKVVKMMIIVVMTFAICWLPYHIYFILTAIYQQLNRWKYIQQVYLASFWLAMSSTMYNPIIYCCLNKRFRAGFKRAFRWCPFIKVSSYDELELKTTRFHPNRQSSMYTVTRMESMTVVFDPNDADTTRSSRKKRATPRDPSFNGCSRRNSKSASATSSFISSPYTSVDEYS
Chain of human NK-2 receptor (P21452 whole entry): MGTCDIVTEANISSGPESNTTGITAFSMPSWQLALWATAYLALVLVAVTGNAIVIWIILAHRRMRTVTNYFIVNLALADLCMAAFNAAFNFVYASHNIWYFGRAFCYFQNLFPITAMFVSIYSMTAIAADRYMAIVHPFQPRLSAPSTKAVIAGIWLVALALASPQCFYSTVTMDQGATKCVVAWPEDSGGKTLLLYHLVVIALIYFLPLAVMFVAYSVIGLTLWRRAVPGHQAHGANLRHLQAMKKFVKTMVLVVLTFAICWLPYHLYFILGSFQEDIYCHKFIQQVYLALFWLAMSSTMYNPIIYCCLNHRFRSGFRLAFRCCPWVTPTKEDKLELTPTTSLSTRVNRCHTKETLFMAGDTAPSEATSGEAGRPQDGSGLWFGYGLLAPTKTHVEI

In the case of `CCc1nsc(-c2nnc3n2CCN(C(=O)c2ccc(F)cc2)C3C)n1` (racemic) [Compound 39, (3-(3-ethyl-1,2,4-thiadiazol-5-yl)-8-methyl-5,6-dihydro-[1,2,4]triazolo[4,3-a]pyrazin-7(8H)-yl)(4-fluorophenyl)methanone], the pKi in data set [1] (setting [6]) is 7.55; in data set [1] (setting [7]), 7.55; in data set [2], under 4.52; in data set [4], under 4.52. The pIC50 in data set [3] was 7.49. The “Exposure (% rPPB), bound drug fraction to plasma protein” value (from here on “Exposure (% rPPB), bound drug fraction”) in data set [5] is on record as 43%.
`CCc1noc(-c2nnc3n2CCN(C(=O)c2ccc(F)cc2)C3C)n1` (racemic) [Compound 40, (3-(3-ethyl-1,2,4-oxadiazol-5-yl)-8-methyl-5,6-dihydro-[1,2,4]triazolo[4,3-a]pyrazin-7(8H)-yl)(4-fluorophenyl)methanone]: the pKi in data set [1] (setting [6]) is 7.08; in data set [1] (setting [7]), 7.08; in data set [2], under 4.52; in data set [4] it was under 4.52. In data set [3], the pIC50 is 6.89. Further, the “Exposure (% rPPB), bound drug fraction” value in data set [5] was determined as 24%.
Regarding `CC(F)c1noc(-c2nnc3n2CCN(C(=O)c2ccc(F)cc2)[C@@H]3C)n1` (single isomer, unassigned) [Compound 45-1], the pKi in data set [1] (setting [6]) was 7.00; in data set [1] (setting [7]), 7.00; in data set [2], under 4.52; in data set [4], under 4.52. The pIC50 in data set [3] was 6.55. For the same compound, the “Exposure (% rPPB), bound drug fraction” value in data set [5] was 27%.
For `CC(F)c1noc(-c2nnc3n2CCN(C(=O)c2ccc(F)cc2)[C@@H]3C)n1` (single isomer, unassigned) [Compound 45-2], the pKi is 7.08 in data set [1] (setting [6]), 7.08 in data set [1] (setting [7]), under 4.52 in data set [2] and under 4.52 in data set [4]. In addition, the negative logarithm of the IC50 (pIC50) in data set [3] was 6.83. Besides, the “Exposure (% rPPB), bound drug fraction” value in data set [5] was determined as 33%.
Take `Cc1nsc(-c2nnc3n2CCN(C(=O)c2ccc(F)c(Cl)c2)[C@@H]3C)n1` [Compound 6, (R)-(3-chloro-4-fluorophenyl)(8-methyl-3-(3-methyl-1,2,4-thiadiazol-5-yl)-5,6-dihydro-[1,2,4]triazolo[4,3-a]pyrazin-7(8H)-yl)methanone]: the pKi is 7.62 in data set [1] (setting [6]), 7.62 in data set [1] (setting [7]), 4.60 in data set [2] and 4.66 in data set [4]. In addition, the pIC50 in data set [3] is 7.52. In addition, the “Exposure (% rPPB), bound drug fraction” value in data set [5] was 53%.
As for `Cc1nsc(-c2nnc3n2CCN(C(=O)c2cc(F)c(F)c(F)c2)[C@@H]3C)n1` [Compound 7, (R)-(8-methyl-3-(3-methyl-1,2,4-thiadiazol-5-yl)-5,6-dihydro-[1,2,4]triazolo[4,3-a]pyrazin-7(8H)-yl)(3,4,5-trifluorophenyl)methanone], the pKi in data set [1] (setting [6]) is 7.59; in data set [1] (setting [7]) it was 7.59; in data set [2], 4.44; in data set [4] it was under 4.52. Moreover, the pIC50 in data set [3] was 7.52. Besides, the “Exposure (% rPPB), bound drug fraction” value in data set [5] is reported as 26%.
Consider `Cc1nsc(-c2nnc3n2CCN(C(=O)c2cc(F)c(F)c(F)c2F)[C@@H]3C)n1` [Compound 10, (R)-(8-methyl-3-(3-methyl-1,2,4-thiadiazol-5-yl)-5,6-dihydro-[1,2,4]triazolo[4,3-a]pyrazin-7(8H)-yl)(2,3,4,5-tetrafluorophenyl)methanone], for which the pKi in data set [1] (setting [6]) was 7.51; in data set [1] (setting [7]), 7.51; in data set [2], 4.31; in data set [4], under 4.52. In addition, the pIC50 in data set [3] is 7.25. Moreover, in data set [5], the “Exposure (% rPPB), bound drug fraction” value is on record as 30%.
As for `Cc1nsc(-c2nnc3n2CCN(C(=O)c2cccc(F)c2)[C@@H]3C)n1` [Compound 15, (R)-(3-fluorophenyl)(8-methyl-3-(3-methyl-1,2,4-thiadiazol-5-yl)-5,6-dihydro-[1,2,4]triazolo[4,3-a]pyrazin-7(8H)-yl)methanone], the negative-log Ki (pKi) in data set [1] (setting [6]) is 7.35; in data set [1] (setting [7]), 7.35; in data set [2], under 4.52; in data set [4], under 4.52. Moreover, in data set [3], the pIC50 was 7.30. In data set [5], the “Exposure (% rPPB), bound drug fraction” value is given as 20%.
Consider `Cc1nsc(-c2nnc3n2CCN(C(=O)c2cccc(Cl)c2)[C@@H]3C)n1` [Compound 16, (R)-(3-chlorophenyl)(8-methyl-3-(3-methyl-1,2,4-thiadiazol-5-yl)-5,6-dihydro-[1,2,4]triazolo[4,3-a]pyrazin-7(8H)-yl)methanone], for which the pKi is 7.31 in data set [1] (setting [6]), 7.31 in data set [1] (setting [7]), 4.43 in data set [2] and under 4.52 in data set [4]. Moreover, the pIC50 in data set [3] is 7.15. In data set [5], the “Exposure (% rPPB), bound drug fraction” value is reported as 36%.
`Cc1nsc(-c2nnc3n2CCN(C(=O)c2cc(F)cc(F)c2)[C@@H]3C)n1` [Compound 17, (R)-(3,5-difluorophenyl)(8-methyl-3-(3-methyl-1,2,4-thiadiazol-5-yl)-5,6-dihydro-[1,2,4]triazolo[4,3-a]pyrazin-7(8H)-yl)methanone]: the pKi in data set [1] (setting [6]) is 7.29; in data set [1] (setting [7]) it was 7.29; in data set [2] it was under 4.52; in data set [4], under 4.52. The negative logarithm of the IC50 (pIC50) in data set [3] was 7.30. Besides, the “Exposure (% rPPB), bound drug fraction” value in data set [5] is reported as 24%.
With `Cc1nsc(-c2nnc3n2CCN(C(=O)c2ccc(F)cc2F)[C@@H]3C)n1` [Compound 18, (R)-(2,4-difluorophenyl)(8-methyl-3-(3-methyl-1,2,4-thiadiazol-5-yl)-5,6-dihydro-[1,2,4]triazolo[4,3-a]pyrazin-7(8H)-yl)methanone], the pKi is 7.27 in data set [1] (setting [6]), 7.27 in data set [1] (setting [7]), under 4.52 in data set [2] and under 4.52 in data set [4]. Also, the negative logarithm of the IC50 (pIC50) in data set [3] was 7.06. For the same compound, in data set [5], the “Exposure (% rPPB), bound drug fraction” value is on record as 23%.
Regarding `Cc1ccc(C(=O)N2CCn3c(-c4nc(C)ns4)nnc3[C@H]2C)cc1` [Compound 19, (R)-(8-methyl-3-(3-methyl-1,2,4-thiadiazol-5-yl)-5,6-dihydro-[1,2,4]triazolo[4,3-a]pyrazin-7(8H)-yl)(p-tolyl)methanone], the pKi is 7.25 in data set [1] (setting [6]), 7.25 in data set [1] (setting [7]), under 4.52 in data set [2] and under 4.52 in data set [4]. In data set [3], the pIC50 is 6.96. Besides, the “Exposure (% rPPB), bound drug fraction” value in data set [5] turned out to be 51%.
